# Test results taken from patent publication US20250205256A1 (GH RESEARCH IRELAND LIMITED, priority 2022, published 2025).
# “And” between values parts separate entries of the source, which are not always exact repeats. Identical values can stand only once.
# Tests used:
# Format in all cases: in vivo, human
# [1] = system: patients with treatment-resistant major depressive disorder (TRD); experiment: Phase 1/2 clinical trial of inhaled 5-MeO-DMT in TRD: BPRS items; details: for BPRS Emotional Withdrawal score: baseline 13
# Description: Patients were assigned to different groups.
# The BPRS item that is of particular relevance to negative thinking is “guilt feelings”. This item relates to over concern or remorse for past behaviour. Possible scores are: • 1—No guilt feelings. • 2—Very Mild. Concerned about having failed someone or at something but not preoccupied. Can shift thoughts to other matters easily. • 3—Mild. Concerned about having failed someone or at something with some preoccupation. Tends to voice guilt to others. • 4—Moderate. Disproportionate preoccupation with guilt, having done wrong, injured others by doing or failing to do something, but can readily turn attention to other things. • 5—Moderately Severe. Preoccupation with guilt, having failed someone or at something, can turn attention to other things, but only with great effort. Not delusional. • 6—Severe; Delusional guilt or unreasonable self-reproach very out of proportion to circumstances. Moderate preoccupation present. • 7—Extremely Severe. Delusional guilt or unreasonable self-reproach grossly out of proportion to circumstances. Subject is very preoccupied with guilt and is likely to disclose to others or act on delusions.
# This trial was designed in two parts.
# [2] = system: patient with postpartum depression (PPD); experiment: Clinical trial of inhaled 5-MeO-DMT (IDR, 6 mg then 12 mg) in postpartum depression: BPRS; details: PPD n=1
# Description: (§1) The patient completed all planned visit days.
# [3] = system: patient with postpartum depression (PPD); experiment: Clinical trial of inhaled 5-MeO-DMT in postpartum depression: Barkin Index of Maternal Functioning (BIMF); details: PPD n=1
# Description: Maternal functioning can, for instance, be assessed using the Barkin Index of Maternal Functioning (BIMF). This index was designed to measure functioning in the year after childbirth. The BIMF is a 20-item self-report measure of functioning. Each item is assigned a score between 0 and 6 so that the maximum total score is 120. The higher the score, the better maternal functioning is rated.
# The BIMF identifies the key functional domains of a mother during the postnatal period as: self-care, infant care, mother-child interaction, psychological wellbeing of the mother, social support, management, and adjustment.
# as §1
# [4] = system: patient with postpartum depression (PPD); experiment: Clinical trial of inhaled 5-MeO-DMT in postpartum depression: safety and tolerability; details: PPD n=1
# Description: as §1
# [5] = 12 mg n=4 sum, 3 h after dose vs baseline
# [6] = 12 mg n=4 sum, Day 1 vs baseline
# [7] = 12 mg n=4 sum, Day 7 vs baseline
# [8] = IDR n=8 sum, 3 h after last dose vs baseline
smiles,measurement,setting,value
COc1ccc2[nH]cc(CCN(C)C)c2c1 [5-MeO-DMT],BPRS Anxiety improvement,[1]; [5],14
same,BPRS Blunted Affect improvement,[1]; [5],3
same,BPRS Emotional Withdrawal improvement,[1]; [5],2
same,BPRS Guilt Feelings improvement,[1]; [5],9
same,BPRS Guilt Feelings percentage improvement,[1]; [5],50.00%
same,BPRS Tension improvement,[1]; [5],5
same,BPRS Blunted Affect score,"[1]; 12 mg n=4 sum, 3 h after dose, baseline 11",8
same,BPRS Emotional Withdrawal score,"[1]; 12 mg n=4 sum, 3 h after dose",11
same,BPRS Tension score,"[1]; 12 mg n=4 sum, 3 h after dose, baseline 14",9
same,BPRS Guilt Feelings score,"[1]; 12 mg n=4 sum, 3 h after dose, baseline 18",9
same,BPRS Anxiety score,"[1]; 12 mg n=4 sum, 3 h after dose, baseline 25",11
same,BPRS Blunted Affect score,"[1]; 12 mg n=4 sum, Day 1, baseline 11",6
same,BPRS Emotional Withdrawal score,"[1]; 12 mg n=4 sum, Day 1",8
same,BPRS Tension score,"[1]; 12 mg n=4 sum, Day 1, baseline 14",6
same,BPRS Guilt Feelings score,"[1]; 12 mg n=4 sum, Day 1, baseline 18",5
same,BPRS Anxiety score,"[1]; 12 mg n=4 sum, Day 1, baseline 25",6
same,BPRS Anxiety improvement,[1]; [6],19
same,BPRS Blunted Affect improvement,[1]; [6],5
same,BPRS Emotional Withdrawal improvement,[1]; [6],5
same,BPRS Guilt Feelings improvement,[1]; [6],13
same,BPRS Tension improvement,[1]; [6],8
same,BPRS Blunted Affect score,"[1]; 12 mg n=4 sum, Day 7, baseline 11",5
same,BPRS Emotional Withdrawal score,"[1]; 12 mg n=4 sum, Day 7",6
same,BPRS Tension score,"[1]; 12 mg n=4 sum, Day 7, baseline 14",6
same,BPRS Guilt Feelings score,"[1]; 12 mg n=4 sum, Day 7, baseline 18",5
same,BPRS Anxiety score,"[1]; 12 mg n=4 sum, Day 7, baseline 25",6
same,BPRS Anxiety improvement,[1]; [7],19
same,BPRS Blunted Affect improvement,[1]; [7],6
same,BPRS Emotional Withdrawal improvement,[1]; [7],7
same,BPRS Guilt Feelings improvement,[1]; [7],13
same,BPRS Tension improvement,[1]; [7],8
same,BPRS Anxiety improvement,[1]; [8],18
same,BPRS Blunted Affect improvement,[1]; [8],4
same,BPRS Emotional Withdrawal improvement,[1]; [8],5
same,BPRS Guilt Feelings improvement,[1]; [8],20
same,BPRS Tension improvement,[1]; [8],5
same,BPRS Emotional Withdrawal score,"[1]; IDR n=8 sum, 3 h after last dose",8
same,BPRS Blunted Affect score,"[1]; IDR n=8 sum, 3 h after last dose, baseline 15",11
same,BPRS Tension score,"[1]; IDR n=8 sum, 3 h after last dose, baseline 16",11
same,BPRS Guilt Feelings score,"[1]; IDR n=8 sum, 3 h after last dose, baseline 34",14
same,BPRS Anxiety score,"[1]; IDR n=8 sum, 3 h after last dose, baseline 37",19
same,BPRS Emotional Withdrawal score,"[1]; IDR n=8 sum, Day 1",8
same,BPRS Blunted Affect score,"[1]; IDR n=8 sum, Day 1, baseline 15",8
same,BPRS Tension score,"[1]; IDR n=8 sum, Day 1, baseline 16",11
same,BPRS Guilt Feelings score,"[1]; IDR n=8 sum, Day 1, baseline 34",11
same,BPRS Anxiety score,"[1]; IDR n=8 sum, Day 1, baseline 37",16
same,BPRS Anxiety improvement,"[1]; IDR n=8 sum, Day 1 vs baseline",21
same,BPRS Blunted Affect improvement,"[1]; IDR n=8 sum, Day 1 vs baseline",7
same,BPRS Emotional Withdrawal improvement,"[1]; IDR n=8 sum, Day 1 vs baseline",5
same,BPRS Guilt Feelings improvement,"[1]; IDR n=8 sum, Day 1 vs baseline",23
same,BPRS Tension improvement,"[1]; IDR n=8 sum, Day 1 vs baseline",5
same,BPRS Emotional Withdrawal score,"[1]; IDR n=8 sum, Day 7",8
same,BPRS Blunted Affect score,"[1]; IDR n=8 sum, Day 7, baseline 15",8
same,BPRS Tension score,"[1]; IDR n=8 sum, Day 7, baseline 16",10
same,BPRS Guilt Feelings score,"[1]; IDR n=8 sum, Day 7, baseline 34",10
same,BPRS Anxiety score,"[1]; IDR n=8 sum, Day 7, baseline 37",17
same,BPRS Anxiety improvement,"[1]; IDR n=8 sum, Day 7 vs baseline",20
same,BPRS Blunted Affect improvement,"[1]; IDR n=8 sum, Day 7 vs baseline",7
same,BPRS Emotional Withdrawal improvement,"[1]; IDR n=8 sum, Day 7 vs baseline",5
same,BPRS Guilt Feelings improvement,"[1]; IDR n=8 sum, Day 7 vs baseline",24
same,BPRS Tension improvement,"[1]; IDR n=8 sum, Day 7 vs baseline",6
same,BPRS Tension improvement,[2]; Day 1 vs baseline,5
same,BPRS Tension improvement,[2]; Discharge vs baseline,5
same,"BIMF total score improvement, percent","[3]; Day 7, from 92 to 105",14%
same,BIMF item 16 (I worry about how other people judge me (as a mother)) score,"[3]; Day 7, Day 0 score 3",5
same,BIMF item 10 (I trust my own feelings (instincts) when taking care of my baby) score,"[3]; Day 7, Day 0 score 5",6
same,BIMF functional domain Adjustment score,"[3]; Day 7, Day 0 score 5, maximum 12",6
same,BIMF functional domain Self Care score,"[3]; Day 7, Day 0 score 9, maximum 18",13
same,BIMF functional domain Infant Care score,"[3]; Day 7, Day 0 score 12, maximum 12",12
same,BIMF functional domain Mother-Child Interaction score,"[3]; Day 7, Day 0 score 15, maximum 18",17
same,BIMF functional domain Social Support score,"[3]; Day 7, Day 0 score 17, maximum 18",18
same,BIMF functional domain Management score,"[3]; Day 7, Day 0 score 28, maximum 36",33
same,BIMF functional domain Psychological Well-being score,"[3]; Day 7, Day 0 score 44, maximum 60",53
same,BIMF TOTAL Δ (Day 7),[3]; Day 7 vs Day 0,13
same,BIMF functional domain Adjustment % Improvement,[3]; Day 7 vs Day 0,20.00%
same,BIMF functional domain Adjustment Δ (Day 7),[3]; Day 7 vs Day 0,1
same,BIMF functional domain Infant Care % Improvement,[3]; Day 7 vs Day 0,0.00%
same,BIMF functional domain Infant Care Δ (Day 7),[3]; Day 7 vs Day 0,0
same,BIMF functional domain Management % Improvement,[3]; Day 7 vs Day 0,18% and 17.86%
same,BIMF functional domain Management Δ (Day 7),[3]; Day 7 vs Day 0,5
same,BIMF functional domain Mother-Child Interaction % Improvement,[3]; Day 7 vs Day 0,13.33%
same,BIMF functional domain Mother-Child Interaction Δ (Day 7),[3]; Day 7 vs Day 0,2
same,BIMF functional domain Psychological Well-being % Improvement,[3]; Day 7 vs Day 0,20.45%
same,BIMF functional domain Psychological Well-being Δ (Day 7),[3]; Day 7 vs Day 0,9
same,BIMF functional domain Self Care % Improvement,[3]; Day 7 vs Day 0,44% and 44.44%
same,BIMF functional domain Self Care Δ (Day 7),[3]; Day 7 vs Day 0,4
same,BIMF functional domain Social Support % Improvement,[3]; Day 7 vs Day 0,5.88%
same,BIMF functional domain Social Support Δ (Day 7),[3]; Day 7 vs Day 0,1
same,BIMF item 1 (I am a good mother) Δ (Day 7),[3]; Day 7 vs Day 0,0
same,BIMF item 2 (I feel rested) Δ (Day 7),[3]; Day 7 vs Day 0,2
same,BIMF item 3 (comfortable with the way I've chosen to feed my baby) Δ (Day 7),[3]; Day 7 vs Day 0,0
same,BIMF item 4 (My baby and I understand each other) Δ (Day 7),[3]; Day 7 vs Day 0,0
same,BIMF item 5 (able to relax and enjoy time with my baby) Δ (Day 7),[3]; Day 7 vs Day 0,1
same,BIMF item 6 (people I can trust to care for my baby when I need a break) Δ (Day 7),[3]; Day 7 vs Day 0,0
same,BIMF item 8 (getting enough adult interaction) Δ (Day 7),[3]; Day 7 vs Day 0,0
same,BIMF item 9 (getting enough encouragement from other people) Δ (Day 7),[3]; Day 7 vs Day 0,1
same,BIMF item 10 (I trust my own feelings (instincts) when taking care of my baby) Δ (Day 7),[3]; Day 7 vs Day 0,1
same,BIMF item 11 (a little time each week to do something for myself) Δ (Day 7),[3]; Day 7 vs Day 0,1
same,BIMF item 12 (taking good care of my baby's physical needs) Δ (Day 7),[3]; Day 7 vs Day 0,0
same,BIMF item 13 (taking good care of my physical needs) Δ (Day 7),[3]; Day 7 vs Day 0,1
same,BIMF item 14 (good decisions about my baby's health and well being) Δ (Day 7),[3]; Day 7 vs Day 0,0
same,BIMF item 15 (My baby and I are getting into a routine) Δ (Day 7),[3]; Day 7 vs Day 0,1
same,BIMF item 16 (I worry about how other people judge me (as a mother)) Δ (Day 7),[3]; Day 7 vs Day 0,2
same,BIMF item 17 (able to take care of my baby and my other responsibilities) Δ (Day 7),[3]; Day 7 vs Day 0,0
same,BIMF item 18 (Anxiety or worry often interferes with my mothering ability) Δ (Day 7),[3]; Day 7 vs Day 0,3
same,BIMF item 19 (getting better at taking care of my baby) Δ (Day 7),[3]; Day 7 vs Day 0,1
same,BIMF item 20 (satisfied with the job I am doing as a new mother) Δ (Day 7),[3]; Day 7 vs Day 0,−1
same,"reported adverse events (cramping left abdominal pain and headache, Day 0)",[4],"mild, short-lasting and resolved spontaneously"
same,tolerability of inhalation procedure,[4],well tolerated with no inhalation-related adverse events
same,"ECG, safety laboratory analyses, CADSS","[4]; ECG 3 hours, laboratory 7 days, CADSS 3 hours, 1 day and 7 days",unremarkable
same,changes in vital parameters,[4]; shortly after administration,"temporary, clinically non-relevant increase in heart rate and blood pressure"
